According to PMC5218480 (PLoS ONE, 2017):

Tested on: MV-4-11 cells
Experiment: Gene expression microarray analysis (Affymetrix PrimeView) and GSEA
Type: cell-based, human
Set-up: RFU PODN (11730768_x_at) / Fold change /veh PODN (11730768_x_at) / RFU LINC00158 (11744669_a_at) / Fold change /veh LINC00158 (11744669_a_at) / RFU DUSP10 (11751237_a_at) / Fold change /veh DUSP10 (11751237_a_at) / RFU ID3 (11757404_x_at) / Fold change /veh ID3 (11757404_x_at) / RFU PLEKHG5 (11737974_s_at) / Fold change /veh PLEKHG5 (11737974_s_at) / RFU LRRC4B (11730491_at) / Fold change /veh LRRC4B (11730491_at) / RFU GIMAP4 (11747438_a_at) / Fold change /veh GIMAP4 (11747438_a_at) / RFU KRT8 (11758183_x_at) / Fold change /veh KRT8 (11758183_x_at) / RFU CNN1 (11734310_a_at) / Fold change /veh CNN1 (11734310_a_at) / RFU VPS37D (11726825_at) / Fold change /veh VPS37D (11726825_at) / RFU C10orf10 (11716522_x_at) / Fold change /veh C10orf10 (11716522_x_at) / RFU KIR2DL2 /// KIR2DL4 /// KIR2DL5A /// KIR2DL5B /// KIR2DS1 /// KIR2DS2 /// KIR2DS3 /// KIR2DS4 /// KIR3DL3 /// KIR3DL3 /// KIR3DS1 (11738374_at) / Fold change /veh KIR2DL2 /// KIR2DL4 /// KIR2DL5A /// KIR2DL5B /// KIR2DS1 /// KIR2DS2 /// KIR2DS3 /// KIR2DS4 /// KIR3DL3 /// KIR3DL3 /// KIR3DS1 (11738374_at) / RFU C1QL1 (11718748_at) / Fold change /veh C1QL1 (11718748_at) / RFU TMPRSS4 (11747572_a_at) / Fold change /veh TMPRSS4 (11747572_a_at) / RFU HAMP (11756126_x_at) / Fold change /veh HAMP (11756126_x_at) / RFU RNFT2 (11725882_a_at) / Fold change /veh RNFT2 (11725882_a_at) / RFU NR4A2 (11747474_a_at) / Fold change /veh NR4A2 (11747474_a_at) / RFU ABCC12 (11746883_a_at) / Fold change /veh ABCC12 (11746883_a_at) / RFU TMEM136 (11760407_x_at) / Fold change /veh TMEM136 (11760407_x_at) / RFU CLDN22 /// WWC2 (11732394_at) / Fold change /veh CLDN22 /// WWC2 (11732394_at) / RFU HLA-DPB1 (11760878_x_at) / Fold change /veh HLA-DPB1 (11760878_x_at) / RFU SPINT1 (11716480_a_at) / Fold change /veh SPINT1 (11716480_a_at) / RFU GAP43 (11754022_s_at) / Fold change /veh GAP43 (11754022_s_at) / RFU A4GNT (11735810_at) / Fold change /veh A4GNT (11735810_at) / RFU PRB3 (11715151_x_at) / Fold change /veh PRB3 (11715151_x_at) / RFU TUBB4B (11761932_at) / Fold change /veh TUBB4B (11761932_at) / RFU CAPN14 (11732068_a_at) / Fold change /veh CAPN14 (11732068_a_at) / RFU TMCC2 (11721928_a_at) / Fold change /veh TMCC2 (11721928_a_at) / RFU IRGQ (11745062_a_at) / Fold change /veh IRGQ (11745062_a_at) / RFU FAM174B (11720279_a_at) / Fold change /veh FAM174B (11720279_a_at) / RFU TMPRSS4 (11748680_a_at) / Fold change /veh TMPRSS4 (11748680_a_at) / RFU FAM212B (11763350_a_at) / Fold change /veh FAM212B (11763350_a_at) / RFU PLEKHG5 (11743358_a_at) / Fold change /veh PLEKHG5 (11743358_a_at) / RFU ZSCAN30 (11745921_a_at) / Fold change /veh ZSCAN30 (11745921_a_at) / RFU CMKLR1 (11741424_a_at) / Fold change /veh CMKLR1 (11741424_a_at) / RFU LOC101060620 /// MAPK8IP1 (11723275_at) / Fold change /veh LOC101060620 /// MAPK8IP1 (11723275_at) / RFU SPTSSB (11747773_x_at) / Fold change /veh SPTSSB (11747773_x_at) / RFU PRSS12 (11739890_at) / Fold change /veh PRSS12 (11739890_at) / RFU BIN1 (11741810_x_at) / Fold change /veh BIN1 (11741810_x_at) / RFU WNT11 (11732464_a_at) / Fold change /veh WNT11 (11732464_a_at) / RFU C10orf10 (11716521_a_at) / Fold change /veh C10orf10 (11716521_a_at) / RFU C5orf56 (11738089_at) / Fold change /veh C5orf56 (11738089_at) / RFU CYB561 (11721691_x_at) / Fold change /veh CYB561 (11721691_x_at) / RFU ANKRD19P (11752326_a_at) / Fold change /veh ANKRD19P (11752326_a_at) / RFU OR2T12 /// OR2T33 /// OR2T8 (11738714_s_at) / Fold change /veh OR2T12 /// OR2T33 /// OR2T8 (11738714_s_at) / RFU VCAN (11748164_a_at) / Fold change /veh VCAN (11748164_a_at) / RFU JSRP1 (11732532_at) / Fold change /veh JSRP1 (11732532_at) / RFU KRTAP10-11 (11738290_x_at) / Fold change /veh KRTAP10-11 (11738290_x_at) / RFU MYO3A (11730013_a_at) / Fold change /veh MYO3A (11730013_a_at) / RFU EBF3 (11725865_a_at) / Fold change /veh EBF3 (11725865_a_at) / RFU CAMK2N1 (11719241_x_at) / Fold change /veh CAMK2N1 (11719241_x_at) / RFU C5orf56 (11738088_a_at) / Fold change /veh C5orf56 (11738088_a_at) / RFU OLFML3 (11715873_a_at) / Fold change /veh OLFML3 (11715873_a_at) / RFU LOC100653217 /// NTM (11731650_a_at) / Fold change /veh LOC100653217 /// NTM (11731650_a_at) / RFU MAPK11 (11762145_a_at) / Fold change /veh MAPK11 (11762145_a_at) / RFU FIZ1 (11724087_x_at) / Fold change /veh FIZ1 (11724087_x_at) / RFU OASL (11726364_x_at) / Fold change /veh OASL (11726364_x_at) / RFU SOX15 (11748057_x_at) / Fold change /veh SOX15 (11748057_x_at) / RFU CD79A (11719716_a_at) / Fold change /veh CD79A (11719716_a_at) / RFU HIST1H1D (11736915_at) / Fold change /veh HIST1H1D (11736915_at) / RFU CASKIN2 (11723855_a_at) / Fold change /veh CASKIN2 (11723855_a_at) / RFU LOC730098 (11760151_x_at) / Fold change /veh LOC730098 (11760151_x_at) / RFU OR4N2 (11742367_at) / Fold change /veh OR4N2 (11742367_at) / RFU PRRT2 (11749266_a_at) / Fold change /veh PRRT2 (11749266_a_at) / RFU SNX32 (11753110_a_at) / Fold change /veh SNX32 (11753110_a_at) / RFU CDHR5 (11726645_a_at) / Fold change /veh CDHR5 (11726645_a_at) / RFU RCAN1 (11760418_a_at) / Fold change /veh RCAN1 (11760418_a_at) / RFU FAM167A (11723789_a_at) / Fold change /veh FAM167A (11723789_a_at) / RFU FAM26E (11764081_at) / Fold change /veh FAM26E (11764081_at) / RFU ISYNA1 (11749810_s_at) / Fold change /veh ISYNA1 (11749810_s_at) / RFU ACY1 (11761880_at) / Fold change /veh ACY1 (11761880_at) / RFU 11764098_at / Fold change /veh 11764098_at / RFU SAMD14 (11745864_x_at) / Fold change /veh SAMD14 (11745864_x_at) / RFU NPB (11741838_a_at) / Fold change /veh NPB (11741838_a_at) / RFU TMPRSS6 (11731388_a_at) / Fold change /veh TMPRSS6 (11731388_a_at) / RFU KRTAP10-2 (11738614_at) / Fold change /veh KRTAP10-2 (11738614_at) / RFU ARHGAP8 /// PRR5-ARHGAP8 (11727945_x_at) / Fold change /veh ARHGAP8 /// PRR5-ARHGAP8 (11727945_x_at) / RFU KRTAP5-7 /// NADSYN1 (11734609_at) / Fold change /veh KRTAP5-7 /// NADSYN1 (11734609_at) / RFU RASL12 (11751679_a_at) / Fold change /veh RASL12 (11751679_a_at) / RFU CDKN2B (11736163_a_at) / Fold change /veh CDKN2B (11736163_a_at) / RFU PRF1 (11729649_at) / Fold change /veh PRF1 (11729649_at) / RFU, ZNF638 /// ZNF638-IT1 / Fold change vs veh, ZNF638 /// ZNF638-IT1 / RFU, PANK3 / Fold change vs veh, PANK3 / RFU, SH3YL1 / Fold change vs veh, SH3YL1 / RFU, ZEB2 / Fold change vs veh, ZEB2 / RFU, NRIP1 / Fold change vs veh, NRIP1 / RFU, PTTG1IP / Fold change vs veh, PTTG1IP / RFU, CAPN2 / Fold change vs veh, CAPN2 / RFU, MED14 / Fold change vs veh, MED14 / RFU, SNORA58 / Fold change vs veh, SNORA58 / RFU, C1orf63 / Fold change vs veh, C1orf63 / RFU, LRRFIP1 / Fold change vs veh, LRRFIP1 / RFU, NDUFAF7 / Fold change vs veh, NDUFAF7 / RFU, SLC12A2 / Fold change vs veh, SLC12A2 / RFU, IBTK / Fold change vs veh, IBTK / RFU, ESF1 / Fold change vs veh, ESF1 / Fold change vs veh, TMEM50B / RFU, TAOK1 / Fold change vs veh, TAOK1 / RFU, ACBD3 / Fold change vs veh, ACBD3 / RFU, TMA16 / Fold change vs veh, TMA16 / RFU, RWDD3 / Fold change vs veh, RWDD3 / RFU, BCAT1 / Fold change vs veh, BCAT1 / RFU, EDEM3 / Fold change vs veh, EDEM3 / RFU, TMEM33 / Fold change vs veh, TMEM33 / RFU, WDR75 / Fold change vs veh, WDR75 / RFU, AHCTF1 / Fold change vs veh, AHCTF1 / RFU, TFRC / Fold change vs veh, TFRC / RFU, ZDHHC17 / Fold change vs veh, ZDHHC17 / RFU, NOM1 / Fold change vs veh, NOM1 / RFU, ARL8B / Fold change vs veh, ARL8B / RFU, ZBTB11 / Fold change vs veh, ZBTB11 / RFU, TAMM41 / Fold change vs veh, TAMM41 / RFU, KIAA1704 /// LOC100996395 / Fold change vs veh, KIAA1704 /// LOC100996395 / RFU, ING1 / Fold change vs veh, ING1 / RFU, TRMT61B / Fold change vs veh, TRMT61B / RFU, FUBP3 / Fold change vs veh, FUBP3 / RFU, TP53 / Fold change vs veh, TP53 / RFU, TNKS2 / Fold change vs veh, TNKS2 / RFU, ZFP14 / Fold change vs veh, ZFP14 / RFU, ACTR2 / Fold change vs veh, ACTR2 / RFU, PPP3R1 / Fold change vs veh, PPP3R1 / RFU, PIK3R1 / Fold change vs veh, PIK3R1 / RFU, HNRNPA1 / Fold change vs veh, HNRNPA1 / RFU, RNF170 / Fold change vs veh, RNF170 / RFU, ZNF28 / Fold change vs veh, ZNF28 / RFU, RNGTT / Fold change vs veh, RNGTT / RFU, OGT / Fold change vs veh, OGT / RFU, BRD1 / Fold change vs veh, BRD1 / RFU, MARS / Fold change vs veh, MARS / RFU, ZNF655 / Fold change vs veh, ZNF655 / RFU, FAHD1 / Fold change vs veh, FAHD1 / RFU, BDP1 / Fold change vs veh, BDP1 / RFU, LRRCC1 / Fold change vs veh, LRRCC1 / RFU, ARID1A / Fold change vs veh, ARID1A / RFU, ZNF146 / Fold change vs veh, ZNF146 / RFU, ZNF330 / Fold change vs veh, ZNF330 / RFU, GPN3 / Fold change vs veh, GPN3 / RFU, C9orf123 / Fold change vs veh, C9orf123 / RFU, N4BP2L2 / Fold change vs veh, N4BP2L2 / RFU, ARFIP1 / Fold change vs veh, ARFIP1 / RFU, FAM179B / Fold change vs veh, FAM179B / RFU, BCL10 / Fold change vs veh, BCL10 / RFU, UHRF1BP1L / Fold change vs veh, UHRF1BP1L / RFU, BET1 / Fold change vs veh, BET1 / RFU, CNOT2 / Fold change vs veh, CNOT2 / RFU, ZNF268 / Fold change vs veh, ZNF268 / Fold change vs veh, ZNF507 / RFU, DGCR2 / Fold change vs veh, DGCR2 / RFU, WDSUB1 / Fold change vs veh, WDSUB1 / Fold change vs veh, HSP90B1 /// MIR3652 / RFU, ADSS / Fold change vs veh, ADSS / RFU, GK / Fold change vs veh, GK / RFU, ZNF148 / Fold change vs veh, ZNF148 / RFU, TAF9 / Fold change vs veh, TAF9 / RFU, SLC1A5 / Fold change vs veh, SLC1A5 / RFU, SLMO2 / Fold change vs veh, SLMO2 / RFU, ABCC4 / Fold change vs veh, ABCC4 / RFU, LOC101060439 /// RAP1B / Fold change vs veh, LOC101060439 /// RAP1B / RFU, RFX7 / Fold change vs veh, RFX7 / RFU, GTPBP10 / Fold change vs veh, GTPBP10 / RFU, CNEP1R1 / Fold change vs veh, CNEP1R1 / RFU, BIVM-ERCC5 /// ERCC5 / Fold change vs veh, BIVM-ERCC5 /// ERCC5 / RFU, ILF3 / Fold change vs veh, ILF3 / RFU 11762660_at / Fold change /veh 11762660_at / RFU VCAN (11757783_s_at) / Fold change /veh VCAN (11757783_s_at) / RFU DDX43 (11728927_at) / Fold change /veh DDX43 (11728927_at) / RFU KRT8 (11758188_x_at) / Fold change /veh KRT8 (11758188_x_at) / RFU NKD1 (11759106_at) / Fold change /veh NKD1 (11759106_at) / RFU SRD5A1 (11742802_a_at) / Fold change /veh SRD5A1 (11742802_a_at) / RFU TPSAB1 /// TPSB2 (11721975_s_at) / Fold change /veh TPSAB1 /// TPSB2 (11721975_s_at) / RFU GSTM3 (11746129_a_at) / Fold change /veh GSTM3 (11746129_a_at) / RFU IL23R (11737362_x_at) / Fold change /veh IL23R (11737362_x_at) / RFU TMEM51 (11727254_a_at) / Fold change /veh TMEM51 (11727254_a_at) / RFU PIWIL2 (11732686_x_at) / Fold change /veh PIWIL2 (11732686_x_at) / RFU ORM1 (11744905_x_at) / Fold change /veh ORM1 (11744905_x_at) / RFU CCDC152 (11743942_at) / Fold change /veh CCDC152 (11743942_at) / RFU ECM1 (11717891_a_at) / Fold change /veh ECM1 (11717891_a_at) / RFU IL23R (11748794_a_at) / Fold change /veh IL23R (11748794_a_at) / RFU TNFAIP8L3 (11732012_x_at) / Fold change /veh TNFAIP8L3 (11732012_x_at) / RFU MBOAT4 (11741988_at) / Fold change /veh MBOAT4 (11741988_at) / RFU 11764193_at / Fold change /veh 11764193_at / RFU TMEM53 (11763286_at) / Fold change /veh TMEM53 (11763286_at) / RFU MAGEB2 (11727129_at) / Fold change /veh MAGEB2 (11727129_at) / RFU TMEM200A (11744735_a_at) / Fold change /veh TMEM200A (11744735_a_at) / RFU CCDC152 (11751479_a_at) / Fold change /veh CCDC152 (11751479_a_at) / RFU FAM211A (11726209_a_at) / Fold change /veh FAM211A (11726209_a_at) / RFU RGS16 (11746705_a_at) / Fold change /veh RGS16 (11746705_a_at) / RFU VCAN (11755009_s_at) / Fold change /veh VCAN (11755009_s_at) / RFU RHOB (11743442_s_at) / Fold change /veh RHOB (11743442_s_at) / RFU RGS16 (11720943_a_at) / Fold change /veh RGS16 (11720943_a_at) / RFU RGS16 (11720944_at) / Fold change /veh RGS16 (11720944_at) / RFU, VPS4B / Fold change vs veh, VPS4B / RFU, CREB1 / Fold change vs veh, CREB1 / RFU, DNAJC13 / Fold change vs veh, DNAJC13 / RFU, GNAQ / Fold change vs veh, GNAQ / RFU, CDK5R1 / Fold change vs veh, CDK5R1 / RFU, ZRANB3 / Fold change vs veh, ZRANB3 / RFU, CUL4A / Fold change vs veh, CUL4A / RFU, CCNY / Fold change vs veh, CCNY / RFU, UFL1 / Fold change vs veh, UFL1 / RFU, COG3 / Fold change vs veh, COG3 / RFU, DIAPH2 / Fold change vs veh, DIAPH2 / RFU, SKA2 / Fold change vs veh, SKA2 / RFU, AFF3 / Fold change vs veh, AFF3 / RFU, LMF1 / Fold change vs veh, LMF1 / RFU, IPO11 / Fold change vs veh, IPO11 / RFU, DFFB / Fold change vs veh, DFFB / RFU, FOXP1 / Fold change vs veh, FOXP1 / RFU, CARD8 / Fold change vs veh, CARD8 / RFU, STRN3 / Fold change vs veh, STRN3 / RFU, ADK / Fold change vs veh, ADK / RFU, RASSF2 / Fold change vs veh, RASSF2 / RFU, WIPF1 / Fold change vs veh, WIPF1 / RFU, LARP1B / Fold change vs veh, LARP1B / RFU, RASA1 / Fold change vs veh, RASA1 / RFU, RB1 / Fold change vs veh, RB1 / RFU, PPFIA1 / Fold change vs veh, PPFIA1 / RFU, MAT2A / Fold change vs veh, MAT2A / RFU, CCT5 / Fold change vs veh, CCT5 / RFU, WDR92 / Fold change vs veh, WDR92 / RFU, CUX1 / Fold change vs veh, CUX1 / RFU, TTC7A / Fold change vs veh, TTC7A / RFU, TMEM135 / Fold change vs veh, TMEM135 / RFU, DEPTOR / Fold change vs veh, DEPTOR / RFU, CPM / Fold change vs veh, CPM / RFU, DNAJB6 / Fold change vs veh, DNAJB6 / RFU, CACNA2D3 / Fold change vs veh, CACNA2D3 / RFU, DTX4 / Fold change vs veh, DTX4 / RFU, TFCP2 / Fold change vs veh, TFCP2 / RFU, GMCL1 /// GMCL1P1 / Fold change vs veh, GMCL1 /// GMCL1P1 / RFU, AEBP2 / Fold change vs veh, AEBP2 / RFU, SNHG1 /// SNORD22 /// SNORD25 /// SNORD26 /// SNORD27 /// SNORD28 /// SNORD29 /// SNORD31 / Fold change vs veh, SNHG1 /// SNORD22 /// SNORD25 /// SNORD26 /// SNORD27 /// SNORD28 /// SNORD29 /// SNORD31 / Fold change (Aza/veh), C12orf56 (ProbeSet 11735607_a_at) / Fold change (ACY-1035/veh), C12orf56 (ProbeSet 11735607_a_at) / Fold change (Aza/veh), FGFR1OP (ProbeSet 11751329_s_at) / Fold change (ACY-1035/veh), FGFR1OP (ProbeSet 11751329_s_at) / Fold change (Aza/veh), VPS36 (ProbeSet 11739960_a_at) / Fold change (ACY-1035/veh), VPS36 (ProbeSet 11739960_a_at) / RFU SYPL1 (11715823_x_at) / Fold change /veh SYPL1 (11715823_x_at) / RFU IGFBP7 (11715501_s_at) / Fold change /veh IGFBP7 (11715501_s_at) / RFU REEP3 (11722064_at) / Fold change /veh REEP3 (11722064_at) / RFU IGLL1 (11728026_x_at) / Fold change /veh IGLL1 (11728026_x_at): dose or concentration left out as unconfirmed
Conditions: ProbeSet 11754362_a_at; LIST D

Nc1ccc(-c2cccs2)cc1NC(=O)c1ccc2c(c1)cc(C1CC1)n2CCN1CCOCC1 [ACY-1035]
Fold change vs veh, TTC7A: 0.87
